From patent US20090269770A1, “METHODS FOR EVALUATION PROGNOSIS AND FOLLOW-UP OF DRUG TREATMENT OF PSYCHIATRIC DISEASES OR DISORDERS” (priority 2008, published 2009)
Values joined by “and” are separate entries in the source; they are usually repeats but may differ in a detail not shown here. Identical values can stand only once.

Key:
Format in all cases: in vivo, human
[1] = tested on: PMC from schizophrenic patients; experiment: Real-time RT-PCR of IL8Rα, CCR1, CCR7, RGS7 mRNAs in PMC (6 patients)
Description: FIGS. 1A-1D show real-time RT-PCR analysis of CCR1 (1A), CCR7 (1B), IL8Ra (1C) and RGS7 (1D) mRNAs in PMCs from schizophrenic patients treated with an antipsychotic drug combined with the antidepressant agent fluvoxamine. Fluvoxamine (100 mg/day) was added in an open study format to the constant antipsychotic treatment of 6 patients suffering from chronic schizophrenia with persistent negative symptoms. Total RNA, isolated from PMCs of these patients at baseline (day 0, BL) as well as following 3 and 6 weeks (3W and 6W, respectively) of the combined treatment, was reverse transcribed. cDNA was amplified in real-time PCR using suitable primers for CCR1, CCR7, IL8Ra and RGS7, as described in the Experimental section hereinafter. The relative expression level of a given mRNA was assessed by normalizing to the reference gene peptidylprolyl isomerase B (cyclophilin B, PPIB). For each patient, the expression level of each one of the genes at baseline was arbitrarily set as 1, and the gene expression levels at 3 and 6 weeks were calculated relative to baseline. Lines connecting points indicate samples of the same patient. Horizontal lines indicate group means. Student's t-test *p<0.05; **p<0.01 for 3 or 6 weeks of fluvoxamine add-on compared with baseline.
(§1) Two μg of total RNA were denatured and reverse transcribed using random hexanucleotides (0.5 μg/μl) as previously described (Chertkow et al., 2006). Real-time quantitative assessment was performed using LightCycler with FastStart DNA Master SYBR Green I ready-to use PCR mix kits according to the manufacture's protocol (Roche Diagnostics, Mannheim, Germany). Forty ng cDNA was amplified per sample. Each experimental set included one reaction with water as template to control for cross contamination. Amplified products were visualized on 1.5% agarose gel. The sequences of the primers, the experimental conditions and the melting temperature of the products are described in Table 2 hereinafter. The results were analyzed in real-time on the provided program of the LightCycler and normalized against a reference gene in order to correct sample-to-sample variation. […] Expression stability of these genes was determined in our samples with ‘Normfinder’ Excel applet (Andersen et al., 2004); PPIB was chosen as the reference gene for normalization. […]
The biochemical data were analyzed by one way analysis of variance (ANOVA) followed by Dunnett's test. […] Clinical response was assessed with repeated measure ANOVA.
In this study, the significant gene expression changes in the PMC of schizophrenic patients, observed in the customized array and shown in Example 1, were verified by real-time RT-PCR. […] The expression level of each candidate was assessed in all samples.

schizophrenic patients = experiment: Simpson-Angus Scale (SAS) for extrapyramidal side effects; settings: for Extra-pyramidal side effects score: one line per patient I-VI
Description: Fluvoxamine (100 mg/day) was added in an open study format to the antipsychotic treatment, which remained steady. Clinical state was assessed by psychiatrists using validated rating scales for negative (SANS) and positive (SAPS) symptoms (Silver et al., 2003) prior to fluvoxamine treatment and then weekly until the end of the trial period. Total SANS scores and summary scores for […] blunting, alogia, anhedonia and […] factors were the outcome measures. Extrapyramidal symptoms were assessed with the Simpson-Angus Scale (SAS) for extrapyramidal side effects (Simpson and Angus, 1970). Blood samples were taken at baseline (day 0), before addition of fluvoxamine, after 3 weeks of combined treatment, a time when the initial clinical effect is expected to be seen (Silver et al., 2003), and after 6 weeks of the combined treatment.

[2] = tested on: PMC from schizophrenic patients; experiment: Real-time RT-PCR of GABAAβ2 and PKCβ2 mRNAs in PMC (8 patients)
Description: FIGS. 2A-2B show real-time RT-PCR analysis of GABAAβ2 (2A) and PKCβ2 (2B) mRNAs in PMCs from schizophrenic patients treated with an antipsychotic drug combined with the antidepressant agent fluvoxamine. Fluvoxamine (100 mg/day) was added in an open study format to the constant antipsychotic treatment of 8 patients suffering from chronic schizophrenia with persistent negative symptoms. Total RNA, isolated from PMCs of these patients at baseline (day 0, BL) as well as following 1, 3 and 6 weeks (1W, 3W and 6W, respectively) of the combined treatment, was reverse transcribed. cDNA was amplified in real-time PCR using suitable primers for GABAAβ2 and PKCβ2, as described in the Experimental section. The relative expression level of a given mRNA was assessed by normalizing to the reference gene PPIB. For each patient, the expression level of each one of the genes at baseline was arbitrarily set as 1, and the gene expression levels at 3 and 6 weeks were calculated relative to baseline. Lines connecting points indicate samples of the same patient. Dash line indicates average of the samples of different objects. Student's t-test *p<0.05; **p<0.01 for 1, 3 or 6 weeks of fluvoxamine add-on compared with baseline.
as §1, with “Amplified products were visualized on 1.5% agarose gel. The sequences of the primers, the experimental conditions and the melting temperature of the products are described in Table 2 hereinafter.” left out

[3] = after 3-6 weeks of the combined treatment

## COCCCC/C(=N\OCCN)c1ccc(C(F)(F)F)cc1 [fluvoxamine]
[1]; 3 and 6 weeks, among the patients
  CCR7 mRNA expression: did not show a consistent trend
[1]; after 3 and 6 weeks of add-on treatment vs initial level, normalized to PPIB
  IL8Rα mRNA expression: reduced significantly
[1]; after 6 weeks
  RGS7 mRNA expression: significantly reduced
[1]; at both time points (3 and 6 weeks), in 5 out of 6 patients
  CCR1 mRNA expression: reduced
Schizophrenic patients; 3 W
  Extra-pyramidal side effects score: 0 (5×) and 6
Schizophrenic patients; 6 W
  Extra-pyramidal side effects score: 0 (5×) and 4
Schizophrenic patients; with augmentation treatment, absent in all, except one patient
  Extra pyramidal side effects change: did not change significantly
[2]; [3]
  average GABAAβ2 expression increase compared with day 0: 40-50%
  average PKCβ2 expression decrease compared with day 0: ≥ 90%
[2]; after one week of the combined treatment
  average PKCβ2 expression decrease compared with day 0: about 30%
